From patent publication US12084430B2, “Tricyclic urea compounds as JAK2 V617F inhibitors” (Incyte Corporation, priority 2022, dated 2024) come the findings set out here.

Experiment [1] concerns the target T1, pseudo-kinase domain (JH2) of human V617F mutant JAK2 (Homo sapiens, UniProt O60674, F794H/V617F/W659A/W777A).
T1 construct: pseudo-kinase domain (JH2, amino-acids 536-812 with 3 surface mutations W659A, W777A, F794H); His (C); purchased BPS Bioscience 79498; host or cells: baculovirus expression system
The experiment is described as follows: JAK2 LanthaScreen JH2-V617F binding assay. The following applies: read-out: JH2 V617F Bind IC50. How it is done:
Example B. JAK2 LanthaScreen JH2-V617F Binding Assay
JAK2 JH2-V617F binding assay utilizes pseudo-kinase domain (JH2, amino-acids 536-812 with 3 surface mutations W659A, W777A, F794H) of human V617F mutant JAK2 expressed as C-terminal His-Avi-tagged, biotinylated protein in a baculovirus expression system (BPS Bioscience, Catalog #79498). The assay was conducted in black 384-well polystyrene plates in a final reaction volume of 20 μL. JAK2 JH2-V617F (0.26 nM) was incubated with compounds (100 nL serially diluted in DMSO) in the presence of 50 nM Fluorescent JAK2-JH2 Tracer (MedChem Express Catalog #HY-102055) and 0.25 nM Streptavidin-Tb cryptate (Cisbio Part #610SATLB) in assay buffer (50 mM Tris, pH=7.5, 10 mM MgCl2, 0.01% Brij-35, 0.1% BSA, 1 mM EGTA, 5% Glycerol and 5 mM DTT). Non-specific binding was accessed in the presence of 2 mM ATP. After incubation for 1 hour at 25° C., LanthaScreen signals were read on a PHERAstar FS plate reader (BMG LABTECH). Data was analyzed with IDBS XLfit and GraphPad Prism 5.0 software using a four parameter dose response curve to determine IC50 for each compound.

Experiment [2] deals with TRKA (Homo sapiens, UniProt P04629). In words: TRKA enzymatic assay. The class given is biochemical. The note with it: 1 mM ATP. An outline of the steps: (§1)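 The reaction mix held 0.58 nM TRKA, 1 mM ATP and 500 nM biotinylated TK substrate in 50 mM HEPES pH 7.0 with 10 mM MgCl2, 1 mM DTT and 0.5% DMSO, run 60 min at room temperature. Product was detected by TR-FRET as the 665/620 nm ratio. IC50 was fitted from % control activity versus log concentration, using DMSO-only and no-ATP wells as controls.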

In experiment [3] the test system is TRKA. The experiment is described as follows: TRKA enzymatic assay. The class given is biochemical. An outline of the steps: as §1
For another experiment, the system named is FLT3. The experiment is described as follows: FLT3 enzymatic assay. The class given is biochemical. A digest of the protocol:
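Kinase reaction at room temperature in HEPES 50 mM pH 7.0 with 10 mM MgCl2, 1 mM DTT: 0.011 nM FLT3, 1 mM ATP, 500 nM biotinylated TK substrate, 0.5% DMSO. After 60 min, HTRF read as 665/620 nm ratio; IC50 from fit of percent control activity versus log concentration.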

For experiment [4], the system named is KIT. The experiment is described as follows: KIT enzymatic assay. In kind it is biochemical. A digest of the protocol: (§2)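 0.12 nM KIT with 1 mM ATP and 500 nM biotinylated TK substrate in 50 mM HEPES pH 7.0, 10 mM MgCl2, 1 mM DTT, 0.1 mM orthovanadate, 0.5% DMSO; 60 min at room temperature. TR-FRET 665/620 nm ratio; IC50 fitted from percent control activity versus log concentration.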

The target in experiment [5] is KIT (Homo sapiens, UniProt P10721). In words: KIT enzymatic assay. The class given is biochemical. The following applies: 1 mM ATP. An outline of the steps:
as §2

Read-outs that look alike come from different tables or passages of the source. Bounds are passed on as bounds.

Chain of KIT (Homo sapiens, UniProt P10721) (P10721 26-976, species assumed): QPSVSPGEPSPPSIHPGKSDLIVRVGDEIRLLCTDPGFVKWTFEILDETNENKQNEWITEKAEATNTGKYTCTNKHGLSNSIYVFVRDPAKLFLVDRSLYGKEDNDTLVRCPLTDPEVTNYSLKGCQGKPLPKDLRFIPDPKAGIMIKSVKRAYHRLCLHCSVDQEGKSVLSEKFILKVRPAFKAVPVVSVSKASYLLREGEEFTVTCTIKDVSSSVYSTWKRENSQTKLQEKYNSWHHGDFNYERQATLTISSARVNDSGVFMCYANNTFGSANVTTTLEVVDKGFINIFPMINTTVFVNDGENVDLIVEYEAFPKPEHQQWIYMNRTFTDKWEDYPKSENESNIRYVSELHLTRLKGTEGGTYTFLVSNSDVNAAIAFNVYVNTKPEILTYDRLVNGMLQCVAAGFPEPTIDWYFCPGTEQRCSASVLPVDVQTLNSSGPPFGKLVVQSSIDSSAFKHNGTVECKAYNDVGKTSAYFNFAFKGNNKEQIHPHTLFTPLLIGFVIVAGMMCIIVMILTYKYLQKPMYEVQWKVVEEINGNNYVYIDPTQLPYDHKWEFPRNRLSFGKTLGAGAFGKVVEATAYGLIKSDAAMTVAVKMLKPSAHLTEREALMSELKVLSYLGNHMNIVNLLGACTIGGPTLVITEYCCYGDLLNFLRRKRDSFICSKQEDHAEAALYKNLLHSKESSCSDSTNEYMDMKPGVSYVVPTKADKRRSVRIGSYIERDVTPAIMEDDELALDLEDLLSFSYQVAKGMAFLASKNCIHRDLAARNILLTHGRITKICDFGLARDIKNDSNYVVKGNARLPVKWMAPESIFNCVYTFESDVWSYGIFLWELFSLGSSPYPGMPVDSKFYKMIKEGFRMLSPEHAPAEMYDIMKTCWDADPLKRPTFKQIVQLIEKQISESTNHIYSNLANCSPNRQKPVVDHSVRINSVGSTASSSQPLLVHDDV
Chain of TRKA (Homo sapiens, UniProt P04629) (P04629 33-796, species assumed): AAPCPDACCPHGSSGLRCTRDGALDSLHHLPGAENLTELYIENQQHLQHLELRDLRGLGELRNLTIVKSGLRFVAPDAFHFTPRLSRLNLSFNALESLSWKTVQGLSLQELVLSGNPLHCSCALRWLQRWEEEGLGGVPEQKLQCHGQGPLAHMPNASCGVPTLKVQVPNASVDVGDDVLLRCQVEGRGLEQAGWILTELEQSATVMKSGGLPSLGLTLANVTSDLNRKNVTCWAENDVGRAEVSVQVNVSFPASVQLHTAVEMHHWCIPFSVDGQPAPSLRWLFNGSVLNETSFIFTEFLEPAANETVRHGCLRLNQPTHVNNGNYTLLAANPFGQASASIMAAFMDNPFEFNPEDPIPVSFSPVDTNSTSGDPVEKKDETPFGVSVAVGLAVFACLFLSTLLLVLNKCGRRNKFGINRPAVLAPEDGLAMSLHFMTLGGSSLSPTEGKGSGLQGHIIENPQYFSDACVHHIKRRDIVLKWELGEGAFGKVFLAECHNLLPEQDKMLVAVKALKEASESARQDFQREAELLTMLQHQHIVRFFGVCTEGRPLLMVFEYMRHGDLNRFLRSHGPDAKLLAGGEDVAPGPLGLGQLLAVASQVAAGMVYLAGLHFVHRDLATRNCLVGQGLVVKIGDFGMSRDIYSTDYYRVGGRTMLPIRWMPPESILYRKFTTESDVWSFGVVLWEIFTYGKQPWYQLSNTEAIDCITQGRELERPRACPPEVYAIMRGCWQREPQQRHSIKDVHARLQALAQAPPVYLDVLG
T1 sequence (O60674 536-812 V617F/W659A/W777A/F794H): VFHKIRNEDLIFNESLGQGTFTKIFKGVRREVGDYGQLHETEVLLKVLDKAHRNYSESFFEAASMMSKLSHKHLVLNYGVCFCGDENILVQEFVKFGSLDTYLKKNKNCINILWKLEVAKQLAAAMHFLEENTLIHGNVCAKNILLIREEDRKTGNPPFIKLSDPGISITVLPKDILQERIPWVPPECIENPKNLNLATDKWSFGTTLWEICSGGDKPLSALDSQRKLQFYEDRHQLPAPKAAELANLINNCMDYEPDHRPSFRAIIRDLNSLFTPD

Turning to `[2H]C([2H])([2H])n1cc(-c2[nH]c3ncc4c(c3c2-c2ccc3c(cnn3C(C)C)c2)n([C@@H]2CC[C@@H](NC(=O)OC)C2)c(=O)n4C([2H])([2H])[2H])c(F)n1` [Example 13, Methyl ((1R,3R)-3-(7-(3-fluoro-1-(methyl-d3)-1H-pyrazol-4-yl)-8-(1-isopropyl-1H-indazol-5-yl)-3-(methyl-d3)-2-oxo-3,6-dihydroimidazo[4,5-d]pyrrolo[2,3-b]pyridin-1(2H)-yl)cyclopentyl)carbamate], the IC50 is at most 10 nM in experiment [1] (Table A), at most 10 nM in experiment [1] (Table C), above 2500 nM against TRKA [2] and 250 to 1250 nM at KIT [5]. In addition, the “Selectivity TRKA/JH2 V617F” value with TRKA [3] is given as “****** (selectivity of >12500-fold)”. Besides, the “Selectivity FLT3/JH2 V617F” value in the experiment with FLT3 was “****** (selectivity of >12500-fold)”. The “Selectivity KIT/JH2 V617F” value in the experiment with KIT [4] is reported as “**** (selectivity of >1750-fold to ≤5000-fold)”.
Take `[2H]C([2H])([2H])n1cc(-c2[nH]c3ncc4c(c3c2-c2ccc3c(cnn3CC(F)F)c2)n([C@@H]2CC[C@@H](NC(=O)OC)C2)c(=O)n4C([2H])([2H])[2H])c(F)n1` [Example 14, Methyl ((1R,3R)-3-(8-(1-(2,2-difluoroethyl)-1H-indazol-5-yl)-7-(3-fluoro-1-(methyl-d3)-1H-pyrazol-4-yl)-3-(methyl-d3)-2-oxo-3,6-dihydroimidazo[4,5-d]pyrrolo[2,3-b]pyridin-1(2H)-yl)cyclopentyl)carbamate]: the IC50 was at most 10 nM in experiment [1] (Table A), at most 10 nM in experiment [1] (Table C), above 2500 nM on TRKA [2] and 250 to 1250 nM at KIT [5]. For the same compound, the “Selectivity TRKA/JH2 V617F” value with TRKA [3] is reported as “****** (selectivity of >12500-fold)”. In the experiment on FLT3, the “Selectivity FLT3/JH2 V617F” value is recorded as “****** (selectivity of >12500-fold)”. The “Selectivity KIT/JH2 V617F” value in the experiment on KIT [4] is “***** (selectivity of >5000-fold to ≤12500-fold)”.
Regarding `[2H]C([2H])([2H])n1ncc2cc(-c3c(-c4cn(C([2H])([2H])C([2H])([2H])[2H])nc4F)[nH]c4ncc5c(c34)n([C@@H]3CC[C@@H](NC(=O)OC)C3)c(=O)n5C([2H])([2H])[2H])ccc21` [Example 15, Methyl ((1R,3R)-3-(7-(1-(ethyl-d5)-3-fluoro-1H-pyrazol-4-yl)-3-(methyl-d3)-8-(1-(methyl-d3)-1H-indazol-5-yl)-2-oxo-3,6-dihydroimidazo[4,5-d]pyrrolo[2,3-b]pyridin-1(2H)-yl)cyclopentyl)carbamate], the IC50 in experiment [1] (Table A) is at most 10 nM; in experiment [1] (Table C), at most 10 nM; against TRKA [2] it was 1250 to 2500 nM; against KIT [5] it was 250 to 1250 nM. Also, in the experiment with TRKA [3], the “Selectivity TRKA/JH2 V617F” value is on record as “****** (selectivity of >12500-fold)”. Moreover, the “Selectivity FLT3/JH2 V617F” value with FLT3 was “***** (selectivity of >5000-fold to ≤12500-fold)”. Besides, in the experiment with KIT [4], the “Selectivity KIT/JH2 V617F” value is listed as “**** (selectivity of >1750-fold to ≤5000-fold)”.
Consider `[2H]C([2H])([2H])n1cc(-c2[nH]c3ncc4c(c3c2-c2ccc3c(cnn3C(C)C)c2)n([C@@H]2CC[C@@H](NC(=O)OC)C2)c(=O)n4C)c(F)n1` [Example 16, Methyl ((1R,3R)-3-(7-(3-fluoro-1-(methyl-d3)-1H-pyrazol-4-yl)-8-(1-isopropyl-1H-indazol-5-yl)-3-methyl-2-oxo-3,6-dihydroimidazo[4,5-d]pyrrolo[2,3-b]pyridin-1(2H)-yl)cyclopentyl)carbamate], for which the IC50 in experiment [1] (Table A) was at most 10 nM; in experiment [1] (Table C) it was at most 10 nM; against TRKA [2] it was above 2500 nM; at KIT [5], 1250 to 2500 nM. For the same compound, the “Selectivity TRKA/JH2 V617F” value in the experiment with TRKA [3] is given as “****** (selectivity of >12500-fold)”. Moreover, the “Selectivity FLT3/JH2 V617F” value in the experiment on FLT3 is listed as “***** (selectivity of >5000-fold to ≤12500-fold)”. In addition, the “Selectivity KIT/JH2 V617F” value in the experiment on KIT [4] is recorded as “****** (selectivity of >12500-fold)”.
`[2H]C([2H])([2H])n1cc(-c2[nH]c3ncc4c(c3c2-c2cc(F)c3c(cnn3C([2H])([2H])[2H])c2)n([C@@H]2CC[C@@H](NC(=O)OC)C2)c(=O)n4C([2H])([2H])[2H])c(F)n1` [Example 17, Methyl ((1R,3R)-3-(8-(7-fluoro-1-(methyl-d3)-1H-indazol-5-yl)-7-(3-fluoro-1-(methyl-d3)-1H-pyrazol-4-yl)-3-(methyl-d3)-2-oxo-3,6-dihydroimidazo[4,5-d]pyrrolo[2,3-b]pyridin-1(2H)-yl)cyclopentyl)carbamate]: the IC50 in experiment [1] (Table A) was at most 10 nM; in experiment [1] (Table C), at most 10 nM; at TRKA [2], above 2500 nM; at KIT [5] it was 1250 to 2500 nM. The “Selectivity TRKA/JH2 V617F” value in the experiment on TRKA [3] was “****** (selectivity of >12500-fold)”. Further, in the experiment on FLT3, the “Selectivity FLT3/JH2 V617F” value is recorded as “****** (selectivity of >12500-fold)”. The “Selectivity KIT/JH2 V617F” value in the experiment on KIT [4] is “****** (selectivity of >12500-fold)”.
With `[2H]C([2H])([2H])n1cc(-c2[nH]c3ncc4c(c3c2-c2ccc3c(cnn3CC(F)F)c2)n([C@@H]2CC[C@@H](NC(=O)OC)C2)c(=O)n4C)c(F)n1` [Example 18, Methyl ((1R,3R)-3-(8-(1-(2,2-difluoroethyl)-1H-indazol-5-yl)-7-(3-fluoro-1-(methyl-d3)-1H-pyrazol-4-yl)-3-methyl-2-oxo-3,6-dihydroimidazo[4,5-d]pyrrolo[2,3-b]pyridin-1(2H)-yl)cyclopentyl)carbamate], the IC50 in experiment [1] (Table A) is at most 10 nM; in experiment [1] (Table C), at most 10 nM; against TRKA [2] it was above 2500 nM; against KIT [5], 1250 to 2500 nM. The “Selectivity TRKA/JH2 V617F” value in the experiment on TRKA [3] was “****** (selectivity of >12500-fold)”. Besides, in the experiment on FLT3, the “Selectivity FLT3/JH2 V617F” value is on record as “****** (selectivity of >12500-fold)”. Also, the “Selectivity KIT/JH2 V617F” value in the experiment on KIT [4] is given as “****** (selectivity of >12500-fold)”.
Take `[2H]C([2H])([2H])n1c(=O)n([C@@H]2CC[C@@H](NC(=O)OC)C2)c2c3c(-c4ccc5c(c4)COC5(C)C)c(-c4cn(C([2H])([2H])C([2H])([2H])[2H])nc4F)[nH]c3ncc21` [Example 19, Methyl ((1R,3R)-3-(8-(1,1-dimethyl-1,3-dihydroisobenzofuran-5-yl)-7-(1-(ethyl-d5)-3-fluoro-1H-pyrazol-4-yl)-3-(methyl-d3)-2-oxo-3,6-dihydroimidazo[4,5-d]pyrrolo[2,3-b]pyridin-1(2H)-yl)cyclopentyl)carbamate]: the IC50 in experiment [1] (Table A) was at most 10 nM; in experiment [1] (Table C), at most 10 nM; against TRKA [2], above 2500 nM; on KIT [5], above 2500 nM. Also, the “Selectivity TRKA/JH2 V617F” value with TRKA [3] is “****** (selectivity of >12500-fold)”. Besides, the “Selectivity FLT3/JH2 V617F” value in the experiment with FLT3 is “****** (selectivity of >12500-fold)”. Further, the “Selectivity KIT/JH2 V617F” value with KIT [4] is “****** (selectivity of >12500-fold)”.
With `[2H]C([2H])([2H])n1c(=O)n([C@@H]2CC[C@@H](NC(=O)OC)C2)c2c3c(-c4ccc5c(c4)COC5(C)C)c(-c4cn(CC)nc4F)[nH]c3ncc21` [Example 20, Methyl ((1R,3R)-3-(8-(1,1-dimethyl-1,3-dihydroisobenzofuran-5-yl)-7-(1-ethyl-3-fluoro-1H-pyrazol-4-yl)-3-(methyl-d3)-2-oxo-3,6-dihydroimidazo[4,5-d]pyrrolo[2,3-b]pyridin-1(2H)-yl)cyclopentyl)carbamate], the IC50 in experiment [1] (Table A) is at most 10 nM; in experiment [1] (Table C) it was at most 10 nM; against TRKA [2] it was above 2500 nM; on KIT [5] it was above 2500 nM. Further, in the experiment on TRKA [3], the “Selectivity TRKA/JH2 V617F” value is listed as “****** (selectivity of >12500-fold)”. Also, in the experiment on FLT3, the “Selectivity FLT3/JH2 V617F” value is given as “****** (selectivity of >12500-fold)”. The “Selectivity KIT/JH2 V617F” value in the experiment with KIT [4] is “****** (selectivity of >12500-fold)”.
